± gives the expanded uncertainty stated by the source.
details: Crystal; Heating/Cooling curves

| SMILES | Normal melting temperature |
| --- | --- |
| CCC1COC(=O)O1 (stereo unspecified) [1,2-butylene carbonate] | -52.81 ± 1.2 °C |
| COCCOC [1,2-dimethoxyethane] | -69.74 ± 0.21 °C |
| C1COCCO1 [1,4-dioxane] | 11.33 ± 0.41 °C |
| CCn1cc[n+](C)c1.O=S(=O)([O-])C(F)(F)F [1-ethyl-3-methylimidazolium trifluoromethanesulfonate] | -10.92 ± 0.6 °C |
| COCCC#N [3-methoxypropanenitrile] | -63.62 ± 0.53 °C |
| [2H]C([2H])([2H])S(=O)C([2H])([2H])[2H] [(methyl sulfoxide)-d6] | 20.2 ± 0.21 °C |
| CC#N [acetonitrile] | -44.08 ± 0.41 °C |
| CCOC(=O)OCC [diethyl carbonate] | -77.29 ± 0.6 °C |
| COC(=O)OC [dimethyl carbonate] | 3.91 ± 0.6 °C |
| C[S+](C)[O-] [dimethyl sulfoxide] | 17.80 ± 2 °C |
| CCOC(=O)OC [ethyl methyl carbonate] | -55.01 ± 0.41 °C |
| CCOC(=O)CC [ethyl propanoate] | -73.44 ± 0.09 °C |
| O=C1OCCO1 [ethylene carbonate] | 35.38 ± 0.21 °C |
| CCCCCCCC[N+](C)(CCCCCCCC)CCCCCCCC.O=C([O-])C(F)(F)F [methyltrioctylammonium trifluoroacetate] | 12.47 ± 0.21 °C |
| C[N+](=O)[O-] [nitromethane] | -29.79 ± 0.41 °C |
| O=C1CCCO1 [γ-butyrolactone] | -44.71 ± 0.21 °C |

Reference: the NIST ThermoML archive (doi:10.1016/j.jct.2008.05.012)
